{
  "source": "patent US20090022720A1",
  "about": "“Conjugate of an antibody against CD4 and antifusogenic peptides” (priority 2007, published 2009)",
  "key": {"NL-BAL (R5)": {"test_system": "NL-BAL (R5)", "test": "Single-cycle antiviral activity assay (luciferase, JC53-BL cells), NL-BAL", "type": "cell-based, HIV", "settings": "Table 3, by weight, pseudotyped virus, 3 day incubation", "protocol": "For the production of pseudotyped NL-Bal viruses, plasmid pNL4-3Δenv (HIV pNL4-3 genomic construct with a deletion within the env gene) and pcDNA3.1/NL-BAL env (pcDNA3.1 plasmid containing NL-Bal env gene (obtained from NIBSC Centralized Facility for AIDS Reagents)) were co-transfected into the HEK 293FT cell line (Invitrogen Corp.), cultured in Dulbecco's modified minimum medium (DMEM) containing 10% fetal calf serum (FCS), 100 U/mL Penicillin, 100 μg/mL Streptomycin, 2 mM L-glutamine and 0.5 mg/mL geniticin (all media from Invitrogen/Gibco). The supernatants containing pseudotyped viruses were harvested two days following transfection, and cellular debris was removed by filtration through a […] pore size PES (polyethersulfone) filter (Nalgene) and stored at −80° C. in aliquots. For normalization in assay performance, virus stock aliquots were used to infect JC53-BL (US NIH Aids Reagent Program) cells yielding approximately 1.5×10^5 RLU (relative light units) per well. […] The assay plates were read on a Luminometer (Luminoskan, Thermo Electron Corporation) after 10 minutes of incubation at room temperature. Percent inhibition of luciferase activity was calculated for each dose point after subtracting the background, and IC50 and IC90-values were determined by using XLfit curve fitting software for Excel (version 3.0.5 Build12; Microsoft)."}, "NL-BAL": {"test_system": "NL-BAL", "test": "Antiviral activity assay in peripheral blood mononuclear cells (PBMC), p24 ELISA, NL-BAL", "type": "cell-based, HIV-1", "settings": "Table 5, by weight; human PBMC, 6 days", "protocol": "Human PBMC are isolated from buffy-coats (obtained from the Stanford Blood Center) by a Ficoll-Paque (Amersham, Piscataway, N.J., USA) density gradient centrifugation according to manufacturer's protocol. Briefly, blood is transferred from the buffy coats in 50 ml conical tubes and diluted with sterile Dulbecco's phosphate buffered saline (Invitrogen/Gibco) to a final volume of 50 ml. Twenty-five ml of the diluted blood are transferred to two 50 ml conical tubes, carefully underlayerd with 12.5 ml of Ficoll-Paque Plus (Amersham Biosciences) and centrifuged at room temperature for 20 min. at 450×g without braking. The white cell layer is carefully transferred to a new 50 ml conical tube and washed twice with PBS. To remove remaining red blood cells, cells are incubated for 5 min. at room temperature with ACK lysis buffer (Biosource) and washed one more time with PBS. PBMC are counted and incubated at a concentration of 2-4×10^6 cells/ml in RPMI1640 containing 10% FCS (Invitrogen/Gibco), 1% penicillin/streptomycin, 2 mM L-glutamine, 1 mM sodium-pyruvate, and 2 μg/ml Phyto-hemagglutinin (Invitrogen) for 24 h at 37° C. […] Virus production is measured at the end of infection by using p24 ELISA (HIV-1 p24 ELISA #NEK050B, Perkin Elmer/NEN) using the sigmoid dose-response model with one binding site in Microsoft Excel Fit (version 3.0.5 Build 12; equation 205; Microsoft)."}},
  "data": [
    {"sequence": "NMTWMEWDREINQYTSLIHSLIEESQNQQEKNEQELL [afp-1]", "values": [
      {"measurement": "Antiviral activity NL-BAL (R5) IC50", "setting": "NL-BAL (R5)", "value": "19.6/— ng/mL"},
      {"measurement": "Antiviral activity NL-BAL IC90", "setting": "NL-BAL", "value": "—/57.6 ng/mL"}
    ]}
  ]
}
